Source: patent publication US10525159B2, “Liquid preparation for contact lenses comprising hydrolyzed hyaluronic acid derivative and cationic bactericide” (OPHTECS CORPORATION, priority 2016, dated 2020)

Experiments:
[1] = Hydrophilicity of SCL by dynamic contact angle measurement (balafilcon A); type: physicochemical; conditions: FIG. 7
Procedure: (§1) SCL having etafilcon A, senofilcon A or balafilcon A as a material was taken out from a blister pack. Moisture on SCL to be measured was wiped off twice with a paper waste cloth, and dien the contact angle was measured using a dynamic contact angle measuring apparatus (automatic contact angle meter DSA100 S manufactured by Krass Company). SCL was set on a sample stage of the dynamic contact angle measuring apparatus in such a manner that die concave surface of the SCL faced upward, and 2 μL of PBS was dropped After dropping, droplets were photographed with a camera after about 10 seconds, and the contact angle between the SCL surface and the droplet was calculated by analysis software.
(§2) Next, each SCL was immersed in a PBS solution containing 50 ppm of the hydrolyzed hyaluronic acid derivative. As a control test, each SCL was immersed in PBS. […] The cycle treatment was repeated, and fir SCL 1 day after immersion and 13 days after immersion, the contact angle was calculated in die same manner as described above.
(§3) Further, each SCL was immersed in a PBS solution containing 50 ppm of Na hyaluronate instead of die hydrolyzed hyaluronic add derivative, and die contact angle was calculated in die same manner as in the case of the hydrolyzed hyaluronic acid derivative.

[2] = Hydrophilicity of SCL by dynamic contact angle measurement (senofilcon A); type: physicochemical; conditions: FIG. 9
Procedure: as §1, §2, §3

both eyes of 15 subjects = assay: Suppression of corneal staining: SPK (superficial punctate keratitis) score in subjects; type: in vivo; conditions: 50 ppm in solution A; 15 subjects (30 eyes); conclusion from the SPK score
[3] = Hydrophilicity of SCL by dynamic contact angle measurement (etafilcon A); type: physicochemical
Procedure: as §1
Next, each SCL was immersed in a PBS solution containing 50 ppm of the hydrolyzed hyaluronic acid derivative. As a control test, each SCL was immersed in PBS. The SCLs were immersed in the respective solutions overnight, and then subjected to cycle treatment under the condition of immersion of the SCL in PBS for 8 hours in conformity to actual wear. The cycle treatment was repeated, and fir SCL 1 day after immersion and 13 days after immersion, the contact angle was calculated in die same manner as described above.
as §3

[4] = PBS containing 50 ppm, risk ratio of less than 5%

## hydrolyzed alkyl (C12-13) glyceryl hyaluronate [hydrolyzed hyaluronic acid derivative]
[1]; Mann-Whitney U test
  contact angle as compared to SCL immersed in PBS, or PBS containing 50 ppm of Na hyaluronate: significantly smaller
[1]; [4]
  contact angle of SCL immersed for 13 days compared with 1 day: significantly smaller
[2]; Mann-Whitney U test
  contact angle as compared to SCL immersed in PBS, or PBS containing 50 ppm of Na hyaluronate: significantly smaller
[2]; [4]
  contact angle of SCL immersed for 13 days compared with 1 day: significantly smaller
Both eyes of 15 subjects
  effect on occurrence of corneal staining: effect of suppressing occurrence of corneal staining
[3]; etafilcon A SCL, PBS containing 50 ppm, Mann-Whitney U test, FIG. 5
  contact angle as compared to SCL immersed in PBS, or PBS containing 50 ppm of Na hyaluronate: significantly smaller
[3]; etafilcon A SCL, PBS containing 50 ppm, risk ratio of less than 5%, FIG. 5
  contact angle of SCL immersed for 13 days compared with 1 day: significantly smaller
[3]; summary for all of the three kinds of SCL (etafilcon A, balafilcon A, senofilcon A)
  contact angle as compared to Na hyaluronate: smaller contact angle
